Earlier results in publication PMC7510478, “The effect of size, charge, and peptide ligand length on kidney targeting by small, organic nanoparticles” (Bioengineering & Translational Medicine, 2020).

What was measured:
megalin = test system: megalin; design: method as in PMID 27617593, PMID 19202329, PMID 11994745, PMID 9574443
ADPKD patients = test system: ADPKD patients
Excerpt: Chronic kidney disease (CKD) affects 600 million people globally and is characterized by gradual kidney function decline. ^1 A common form of CKD is autosomal dominant polycystic kidney disease (ADPKD), which affects over 12 million people worldwide and is characterized by renal cyst formation that can result in the need for dialysis or kidney transplant. ^2 , ^3 , ^4 , ^5 Currently, there is no cure for ADPKD and tolvaptan is the only FDA approved treatment for ADPKD. ^6 Despite enthusiasm, tolvaptan has been reported to cause several side effects including polyuria, thirst, nocturia, and dru ...

[1] = study of 961 ADPKD patients undergoing tolvaptan treatment

[Lys–Lys–Glu–Glu–Glu]3–Lys [(KKEEE)3K]
Uptake in megalin‐deficient mice (megalin): significantly reduced uptake

Cc1ccccc1C(=O)Nc1ccc(C(=O)N2CCCC(O)c3cc(Cl)ccc32)c(C)c1 (stereo not shown) [tolvaptan]
Patients affected by polyuria (ADPKD patients; ADPKD patients on tolvaptan): 38% | Adverse event rate, nocturia (ADPKD patients; [1]): ~29% | Adverse event rate, thirst (ADPKD patients; [1]): approximately 55%
